In patent publication US20180024136A1, “Development of ABCG2-Sensitive Fluorescent Probe For Isolation of ABCG2low Neural Stem/Progenitor Cells” (National University of Singapore, priority 2015, published 2018):

What was measured:
mouse NSPCs = test: Neurosphere size after co-incubation with probe; assay type: cell-based; conditions: 1 μM, 7 days
[1] = Spectroscopic properties of CF library (absorbance, emission, quantum yield, extinction coefficient); assay type: physicochemical
How it was run: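 Absorbance, emission and quantum yield were measured on a combined fluorometer/UV-VIS plate reader with 1 nm excitation and emission slit widths.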

NS-5 cells [2] = test: DOFLA screening: live cell staining of MEF, mESC, NS5 and differentiated NS5; assay type: cell-based, mouse; conditions: 1 μM, 1 hour, NS5, D-NS5
Method: The screening platform was composed of mouse embryonic fibroblast (MEF), mouse embryonic stem cells (mESC), NS5 and differentiated NS5 (D-NS5) (FIG. 4). A derivate from the CF library was selected having eleven saturated carbon chain (CF-C11), named as compound of designation green 13 (CDg13, λabs/λem=520/553 nm; quantum yield=0.82) (FIG. 4A, Table 3). […] To characterize the subcellular target of the CDg13 probe, the image of CDg13 using confocal microscopy was analyzed. The CDg13 stained organelle was clearly merged with the staining of a molecular probe that targeted endoplasmic reticulum (ER), but not with Golgi, lysosome, and mitochondria targeted probes (FIG. 4C). The value of co-localization with ER was appeared as 0.97 on both of Pearson's Collection and Mander's overlap, whereas other organelle markers were below 0.83.
Screening of fluorescent probes of DOFL was conducted using high-throughput imaging analysis as previously described^7.
Hoechst 33342 (2 μM) and CDg13 (1 μM) were added to the cell culture medium. After incubation for 1 hour, culture media were changed with BSA-free medium to maintain CDg13 staining. […] The subcellular staining was observed under confocal microscope and their co-localizations were analyzed by Pearson's Collection and Mander's overlap using NIS-Elements software of Eclipse Ti microscope (Nikon).

Abcg2 = test: CDg13 staining of Abcg2 knockdown D-NS5 cells; assay type: cell-based, mouse; conditions: D-NS5, siAbcg2 versus controls, 1 hour staining
Method: FIGS. 9A-9D show gene expression of ABC transporters: (A) undifferentiated (NS5) and 3-days differentiated NS5 (D-NS5), (B) the mRNA expression of the indicated ABC transporters were analyzed by qRT-PCR using total RNA from control and Abcg2-targeted siRNA transfected D-NS5 cells (N=3), and (C) and (D) negative (−) control siRNA (siCon) and Abcg2-targeted siRNA (siAbcg2) treated D-NS5 cells were stained with CDg13 for 1 hour, representative cells image (C) and the intensity staining of CDg13 (D) are shown (N=3) (data were normalized by β-actin expression and represented as relative fold, all values are means±SEM, *, p<0.05; **, p<0.01, unpaired two-tailed Student's T-test was used to calculate statistical significance)(Bar in (C): 100 μm).
siRNAs targeted to mouse ABCG2 gene and non-targeted control (Santa Cruz) were transiently introduced to 2 days differentiated NS-5 cells by using RNAiMAX (Invitrogen). We used 20 nM of siRNA and 3 μl of RNAiMAX for transfecting one well of 12-well plate (70-80% confluence with cells). Transfection efficiency in the condition was more than 90% as measured by fluorescence non-targeted siRNA. The levels of RNA and their analysis were performed after 3 days of transfection.

NS-5 cells [3] = test: Subcellular co-localization with organelle trackers by confocal microscopy; assay type: cell-based, mouse
Method: Hoechst 33342 (2 μM) and CDg13 (1 μM) were added to the cell culture medium. After incubation for 1 hour, culture media were changed with BSA-free medium to maintain CDg13 staining. The organelle specific chemical probes, ER-Tracker™ Red, BODIPY® TR Ceramide, LysoTracker® Red DND-99 and MitoTracker® Deep Red FM, were used to stain endoplasmic reticulum, Golgi apparatus, lysosome and mitochondria, respectively according to manufacturer's instructions (Molecular Probe). The subcellular staining was observed under confocal microscope and their co-localizations were analyzed by Pearson's Collection and Mander's overlap using NIS-Elements software of Eclipse Ti microscope (Nikon).
NS-5 cells stained with CDg13, Hoechst33342 and/or organelle markers were observed using A1R+si confocal microscope (Nikon) within 1 hour after staining. The live NS-5 cells were loaded into a pre-heated plate with supplemented 5% CO2. Fast scanning less than 250 ms with 4 times scan were used to prevent phototoxicity onto the cells.

With `CCCCCCCCCN(CCCCCCCCC)C(=O)c1ccc(-c2c3cc(Cl)c(=O)cc-3oc3cc(O)c(Cl)cc23)cc1` [CDg13] the “effect on neurosphere size” value (mouse NSPCs) was “no significant difference in neurosphere size”, the “neurosphere size on average” value (mouse NSPCs; third passage) was 109 μm and the “Abs (nm)” value ([1]; 100 μM in ethanol) was 520 nm. For the same compound, the “Em (nm)” value ([1]; 100 μM in ethanol) was 553 nm, the “QY (Φ)” value ([1]; 100 μM in ethanol, reference fluorescein) was 0.82 and the extinction co-efficient ([1]; measured in ethanol) was 40933.2 M⁻¹ cm⁻¹. The “cell type staining selectivity” value (NS-5 cells [2]) was “preferentially stains undifferentiated NS-5 cells, a NSPC line, but not other cell types”, the “CDg13 staining increase by Abcg2 knockdown” value (Abcg2) was “around 2 fold” and the “co-localization with other organelle markers” value (NS-5 cells [3]; Golgi, lysosome, mitochondria trackers) was “below 0.83”. For the same compound, the “co-localization with ER (Pearson's Collection and Mander's overlap)” value (NS-5 cells [3]; live NS-5 cells, ER tracker) was 0.97.
